Strand notation (5' to 3'): a small letter for the sugar, then the base; units joined by * are phosphorothioate-linked, units joined directly phosphodiester-linked; [ ] holds rarer units or linkages, { } end groups; capitals alone tell only the bases. k = constrained ethyl (cEt); [5mC] = 5-methylcytosine; d = 2'-deoxy (DNA)
System: human SMAD7 mRNA
Test: Antisense inhibition of human SMAD7 mRNA expression in Hep3B cells by 3-10-3 cEt gapmers, 10,000 nM, electroporation (Example 2)
Assay type: cell-based
Conditions: approximately 24 hours
Outline: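 Hep3B, 20,000 cells/well; electroporation, 10,000 nM ASO; ~24 h. Readout: SMAD7 mRNA by qRT-PCR (RTS5062), RIBOGREEN-normalised; % inhibition vs untreated.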

[1] = Hep3B cells, 10,000 nM antisense oligonucleotide, electroporation, RT-PCR primer probe set RTS5062, relative to untreated control cells
[2] = Hep3B cells, electroporation, 10,000 nM antisense oligonucleotide, RTS5062, relative to untreated control cells
[3] = Hep3B cells, electroporation with 10,000 nM antisense oligonucleotide, RTS5062, percent inhibition of SMAD7 mRNA relative to untreated control cells
[4] = Hep3B cells, electroporation with 10,000 nM antisense oligonucleotide, SMAD7 mRNA by RT-PCR (RTS5062), relative to untreated control cells
[5] = Hep3B cells, electroporation with 10,000 nM antisense oligonucleotide, primer probe set RTS5062, relative to untreated control cells
[6] = SMAD7 mRNA, Hep3B cells, electroporation with 10,000 nM antisense oligonucleotide, primer probe set RTS5062, relative to untreated control cells

799918 (antisense k[5mC]*kA*kT*dT*dT*dA*dT*d[5mC]*dT*d[5mC]*dG*d[5mC]*d[5mC]*kA*kT*kG) [compound 799918]
% Inhibition [1]: 16%

799760 (antisense kT*kT*k[5mC]*dT*dA*dG*dG*dT*dG*dA*dA*d[5mC]*d[5mC]*kA*kT*kA) [compound 799760]
% inhibition of SMAD7 mRNA expression [2]: 58%

799278 (antisense k[5mC]*k[5mC]*k[5mC]*dG*dT*d[5mC]*dT*dG*dG*dG*d[5mC]*dT*d[5mC]*k[5mC]*kG*kG) [compound 799278]
% Inhibition [3]: 14%

798671 (antisense kA*kG*k[5mC]*dG*dG*d[5mC]*dG*dG*d[5mC]*dG*dG*d[5mC]*d[5mC]*k[5mC]*kG*kA) [compound 798671]
% Inhibition [4]: 61%

830134 (antisense kA*kG*kT*dA*d[5mC]*dA*dA*dT*d[5mC]*dT*d[5mC]*d[5mC]*dT*kG*kG*kA) [compound 830134]
% Inhibition [4]: 61%

799403 (antisense kG*k[5mC]*kT*dA*dA*dG*dG*dT*d[5mC]*dA*d[5mC]*dT*dG*kT*kT*k[5mC]) [compound 799403]
% inhibition of SMAD7 mRNA expression [5]: 0%

830205 (kG*kA*k[5mC]*dT*d[5mC]*dA*dT*d[5mC]*dA*dG*dG*d[5mC]*dA*kT*kT*k[5mC]; antisense) [compound 830205]
% Inhibition [4]: 26%

800058 (antisense kT*k[5mC]*kA*dT*d[5mC]*dA*dG*dG*d[5mC]*dA*dT*dT*d[5mC]*kA*k[5mC]*kT) [compound 800058]
% Inhibition [1]: 51%

829896 (antisense k[5mC]*kG*kG*dG*dT*dG*dT*dA*dG*d[5mC]*dA*d[5mC]*dT*kG*kG*k[5mC]) [compound 829896]
% Inhibition [6]: 44%

798825 (k[5mC]*kT*kG*dG*dA*d[5mC]*dA*d[5mC]*dA*dG*dT*dA*dG*kA*kG*k[5mC]; antisense) [compound 798825]
% Inhibition [1]: 24%

799868 (k[5mC]*kA*kT*dA*dA*dA*d[5mC]*dA*dT*dG*dG*dG*d[5mC]*kT*k[5mC]*k[5mC]; antisense) [compound 799868]
% Inhibition [4]: 34%

799034 (k[5mC]*kT*kT*dG*d[5mC]*d[5mC]*d[5mC]*dA*dG*dG*dT*dA*d[5mC]*kT*kG*k[5mC]; antisense) [compound 799034]
% Inhibition [5]: 12%

830103 (kA*kA*kG*d[5mC]*d[5mC]*d[5mC]*dG*d[5mC]*dT*d[5mC]*dT*d[5mC]*dA*kG*k[5mC]*k[5mC]; antisense) [compound 830103]
% Inhibition [4]: 39%

799610 (kG*kG*kG*dA*dG*dA*dA*dA*d[5mC]*dT*d[5mC]*d[5mC]*dT*k[5mC]*kA*kG; antisense) [compound 799610]
% Inhibition [3]: 45%

798709 (antisense kT*kG*k[5mC]*dG*d[5mC]*dT*d[5mC]*dG*dG*d[5mC]*dT*dG*dT*k[5mC]*k[5mC]*kG) [compound 798709]
% inhibition of SMAD7 mRNA expression [5]: 2%

799805 (k[5mC]*kG*kA*dG*dA*dA*dG*dA*dG*dT*dA*dA*dT*kT*k[5mC]*kA; antisense) [compound 799805]
% Inhibition [3]: 1%

799001 (antisense k[5mC]*kA*kG*d[5mC]*d[5mC]*dG*d[5mC]*dA*d[5mC]*dA*d[5mC]*dT*d[5mC]*kA*k[5mC]*kA) [compound 799001]
% Inhibition [5]: 37%

799012 (kA*kT*kA*dA*dG*dA*dG*dA*d[5mC]*dA*d[5mC]*dA*dA*kA*kA*k[5mC]; antisense) [compound 799012]
% inhibition of SMAD7 mRNA expression [5]: 43%

830125 (antisense kT*k[5mC]*k[5mC]*dG*dA*dG*dG*d[5mC]*dA*d[5mC]*d[5mC]*dA*d[5mC]*kA*kT*kT) [compound 830125]
% Inhibition [4]: 46%

799789 (kA*k[5mC]*kA*d[5mC]*dA*dA*d[5mC]*d[5mC]*dA*dA*dA*dG*d[5mC]*kA*kG*kA; antisense) [compound 799789]
% Inhibition [3]: 44%

829890 (antisense kA*kA*kG*d[5mC]*d[5mC]*d[5mC]*dG*dT*d[5mC]*d[5mC]*dA*d[5mC]*dG*kG*k[5mC]*kT) [compound 829890]
% Inhibition [6]: 0%

799146 (antisense kT*kA*k[5mC]*d[5mC]*dT*dT*dG*dG*dG*dT*dT*dA*dT*kG*kA*k[5mC]) [compound 799146]
% inhibition of SMAD7 mRNA expression [5]: 0%

829856 (antisense kA*k[5mC]*k[5mC]*dA*dG*d[5mC]*dT*dG*dA*d[5mC]*dT*d[5mC]*dT*kT*kG*kT) [compound 829856]
% Inhibition [6]: 41%

830077 (k[5mC]*k[5mC]*kA*d[5mC]*dA*dT*dT*d[5mC]*dA*dG*dG*dG*dT*kG*kT*k[5mC]; antisense) [compound 830077]
% Inhibition [4]: 37%

799937 (antisense kT*k[5mC]*kT*dT*dT*dA*dA*dT*dT*dT*d[5mC]*dA*dG*kA*kG*kT) [compound 799937]
% Inhibition [1]: 24%

798945 (antisense k[5mC]*kA*k[5mC]*dA*dA*dA*d[5mC]*dG*dA*dG*dG*dA*d[5mC]*kG*kA*kG) [compound 798945]
% inhibition of SMAD7 mRNA expression [5]: 19%

799432 (antisense kT*kG*kA*d[5mC]*dA*dG*d[5mC]*d[5mC]*dA*d[5mC]*dA*dA*dG*kT*k[5mC]*kA) [compound 799432]
% Inhibition [4]: 7%

798883 (kT*kA*kA*dA*dG*d[5mC]*d[5mC]*d[5mC]*dG*dT*d[5mC]*d[5mC]*dA*k[5mC]*kG*kG; antisense) [compound 798883]
% Inhibition [4]: 0%

799216 (kT*kA*kT*dT*dA*dA*dA*dG*d[5mC]*dA*dA*dA*dG*kT*kG*k[5mC]; antisense) [compound 799216]
% inhibition of SMAD7 mRNA expression [5]: 49%

798929 (antisense kT*kA*kT*dT*dA*dG*d[5mC]*dA*dG*d[5mC]*dA*dA*dA*kG*kT*kA) [compound 798929]
% Inhibition [1]: 41%

799055 (antisense kG*k[5mC]*kT*d[5mC]*dA*dG*dA*dA*dG*d[5mC]*d[5mC]*dT*dG*kT*kG*kG) [compound 799055]
% Inhibition [5]: 19%

799817 (antisense kT*kA*k[5mC]*dT*dG*dA*dT*dT*d[5mC]*dA*dT*dG*dA*kG*kG*kG) [compound 799817]
% inhibition of SMAD7 mRNA expression [2]: 45%

799935 (antisense kA*kG*kA*dA*dA*dT*dG*dA*d[5mC]*dT*dT*dT*dT*kT*kA*k[5mC]) [compound 799935]
% Inhibition [1]: 42%

798731 (antisense kG*kG*kT*dG*dG*dT*dG*dA*d[5mC]*d[5mC]*dT*dT*dT*kG*kG*k[5mC]) [compound 798731]
% inhibition of SMAD7 mRNA expression [5]: 43%

799675 (antisense kT*k[5mC]*k[5mC]*d[5mC]*dA*dG*dT*dT*d[5mC]*dA*dT*dG*dA*kT*k[5mC]*kA) [compound 799675]
% inhibition of SMAD7 mRNA expression [2]: 0%

798698 (antisense kA*kG*k[5mC]*dT*d[5mC]*dG*d[5mC]*d[5mC]*dT*d[5mC]*d[5mC]*dT*d[5mC]*k[5mC]*kT*k[5mC]) [compound 798698]
% Inhibition [4]: 57%

798922 (kA*kA*kG*dT*dG*dT*dG*dG*d[5mC]*d[5mC]*dT*dG*d[5mC]*kT*k[5mC]*kA; antisense) [compound 798922]
% Inhibition [4]: 59%

799436 (antisense kA*kG*k[5mC]*d[5mC]*dA*dT*dT*d[5mC]*d[5mC]*dT*d[5mC]*dA*dA*kA*k[5mC]*k[5mC]) [compound 799436]
% inhibition of SMAD7 mRNA expression [5]: 4%

799541 (kT*kT*kA*dA*dT*dG*dA*d[5mC]*dA*d[5mC]*d[5mC]*dA*dA*kA*kG*kT; antisense) [compound 799541]
% inhibition of SMAD7 mRNA expression [2]: 55%

799925 (antisense k[5mC]*k[5mC]*kA*dA*dG*d[5mC]*d[5mC]*dT*dA*d[5mC]*dA*dT*dA*kT*kT*kT) [compound 799925]
% Inhibition [4]: 10%

799098 (antisense kA*kA*kA*dA*d[5mC]*d[5mC]*dT*dG*dA*dT*dG*dT*d[5mC]*kA*k[5mC]*k[5mC]) [compound 799098]
% Inhibition [5]: 38%

772735 (kA*kA*k[5mC]*dT*dG*dT*dT*dT*dG*dT*d[5mC]*dT*dT*kA*kG*k[5mC]; antisense) [compound 772735]
% Inhibition (SMAD7 mRNA, Hep3B cells, 10,000 nM antisense oligonucleotide, electroporation, primer probe set RTS5062, relative to untreated control cells): 52%

829867 (antisense kT*kG*kT*dG*dG*d[5mC]*dG*dG*dA*d[5mC]*dT*dT*dG*kA*kT*kG) [compound 829867]
% Inhibition [6]: 22%

799672 (antisense kA*k[5mC]*kA*dG*dG*dA*dT*dG*dG*dA*dG*d[5mC]*dA*kA*kT*kG) [compound 799672]
% inhibition of SMAD7 mRNA expression [2]: 41%

798867 (kT*kT*kG*dT*dG*dT*dA*d[5mC]*d[5mC]*dA*dA*d[5mC]*dA*kG*k[5mC]*kG; antisense) [compound 798867]
% Inhibition [4]: 29%

799455 (antisense kT*kG*kT*dT*dA*dA*dA*dG*dA*d[5mC]*dA*dG*dA*kG*kG*kA) [compound 799455]
% Inhibition [4]: 55%

Reference: patent publication US10517889B2, “Modulators of SMAD7 expression” (Ionis Pharmaceuticals, Inc., priority 2017, dated 2019)
